Consider 5 compounds from PubChem BioAssay AID1259407 (Chemical Carcinogenesis Research Information System (CCRIS), 2018).

In the data set the test system is CCRIS mutagenicity, Ames/micronucleus/aberration tests. The experiment in a line: CCRIS mutagenicity studies.
Where [1] appears, read: Test System: AMES SALMONELLA TYPHIMURIUM, Strain/Indicator: TA98, Metabolic Activation: NONE, Method: STANDARD PLATE.
The mark [2] stands for this setting: Test System: AMES SALMONELLA TYPHIMURIUM, Strain/Indicator: TA100, Metabolic Activation: NONE, Method: STANDARD PLATE.

Activity calls are given as the source filed them. The rule behind the calls is not given here.

For `C=C(C)C(=O)OCCO`, the mutagenic call reads like this: (Test System: AMES SALMONELLA TYPHIMURIUM, Strain/Indicator: TA97A, Metabolic Activation: NONE, Method: STANDARD PLATE) “inactive; negative”; under setting [1], “inactive; negative”; (Test System: AMES SALMONELLA TYPHIMURIUM, Strain/Indicator: TA98, Metabolic Activation: RAT, LIVER, S-9, AROCLOR 1254, Method: STANDARD PLATE) “inactive; negative”; (Test System: AMES SALMONELLA TYPHIMURIUM, Strain/Indicator: TA98, Metabolic Activation: RAT, LIVER, S-9, SODIUM PHENOBARBITAL, Method: STANDARD PLATE) “inactive; negative”; under setting [2], “inactive; negative”; (Test System: AMES SALMONELLA TYPHIMURIUM, Strain/Indicator: TA100, Metabolic Activation: RAT, LIVER, S-9, AROCLOR 1254, Method: STANDARD PLATE) “inactive; negative”. The mutagenic call is “inactive; negative” (Test System: AMES SALMONELLA TYPHIMURIUM, Strain/Indicator: TA100, Metabolic Activation: RAT, LIVER, S-9, SODIUM PHENOBARBITAL, Method: STANDARD PLATE); “inactive; negative” (Test System: AMES SALMONELLA TYPHIMURIUM, Strain/Indicator: TA102, Metabolic Activation: NONE, Method: STANDARD PLATE); “inactive; negative” (Test System: AMES SALMONELLA TYPHIMURIUM, Strain/Indicator: TA104, Metabolic Activation: NONE, Method: STANDARD PLATE); “inactive; negative” (Test System: AMES SALMONELLA TYPHIMURIUM, Strain/Indicator: TA1535, Metabolic Activation: NONE, Method: STANDARD PLATE); “inactive; negative” (Test System: AMES SALMONELLA TYPHIMURIUM, Strain/Indicator: TA1535, Metabolic Activation: RAT, LIVER, S-9, AROCLOR 1254, Method: STANDARD PLATE); “inactive; negative” (Test System: AMES SALMONELLA TYPHIMURIUM, Strain/Indicator: TA1535, Metabolic Activation: RAT, LIVER, S-9, SODIUM PHENOBARBITAL, Method: STANDARD PLATE). Further, the mutagenic call (Test System: AMES SALMONELLA TYPHIMURIUM, Strain/Indicator: TA1537, Metabolic Activation: NONE, Method: STANDARD PLATE) is “inactive; negative”; the mutagenic call (Test System: AMES SALMONELLA TYPHIMURIUM, Strain/Indicator: TA1537, Metabolic Activation: RAT, LIVER, S-9, AROCLOR 1254, Method: STANDARD PLATE) was “inactive; negative”; the mutagenic call (Test System: AMES SALMONELLA TYPHIMURIUM, Strain/Indicator: TA1537, Metabolic Activation: RAT, LIVER, S-9, SODIUM PHENOBARBITAL, Method: STANDARD PLATE) is “inactive; negative”; the mutagenic call (Test System: AMES SALMONELLA TYPHIMURIUM, Strain/Indicator: TA1538, Metabolic Activation: NONE, Method: STANDARD PLATE) was “inactive; negative”; the mutagenic call (Test System: AMES SALMONELLA TYPHIMURIUM, Strain/Indicator: TA1538, Metabolic Activation: RAT, LIVER, S-9, AROCLOR 1254, Method: STANDARD PLATE) is “inactive; negative”; the mutagenic call (Test System: AMES SALMONELLA TYPHIMURIUM, Strain/Indicator: TA1538, Metabolic Activation: RAT, LIVER, S-9, SODIUM PHENOBARBITAL, Method: STANDARD PLATE) is “inactive; negative”. Besides, the mutagenic call (Test System: CHINESE HAMSTER V-79, Strain/Indicator: V79 (HPRT)/6-THIOGUANINE, Metabolic Activation: NONE) is “inactive; negative”.

Regarding `FC(C(F)(F)F)C(F)(F)F`, the mutagenic call (Test System: AMES SALMONELLA TYPHIMURIUM, Strain/Indicator: TA98, Metabolic Activation: NONE, Method: DESICCATOR) is “inactive; negative”; the mutagenic call (Test System: AMES SALMONELLA TYPHIMURIUM, Strain/Indicator: TA98, Metabolic Activation: NONE, Method: VAPOR CHAMBER) is “inactive; negative”; the mutagenic call (Test System: AMES SALMONELLA TYPHIMURIUM, Strain/Indicator: TA98, Metabolic Activation: RAT, LIVER, S-9, AROCLOR 1254, Method: DESICCATOR) is “inactive; negative”; the mutagenic call (Test System: AMES SALMONELLA TYPHIMURIUM, Strain/Indicator: TA98, Metabolic Activation: RAT, LIVER, S-9, AROCLOR 1254, Method: VAPOR CHAMBER) is “inactive; negative”; the mutagenic call (Test System: AMES SALMONELLA TYPHIMURIUM, Strain/Indicator: TA100, Metabolic Activation: NONE, Method: DESICCATOR) is “inactive; negative”; the mutagenic call (Test System: AMES SALMONELLA TYPHIMURIUM, Strain/Indicator: TA100, Metabolic Activation: NONE, Method: VAPOR CHAMBER) is “inactive; negative”. For the same compound, the mutagenic call was “inactive; negative” (Test System: AMES SALMONELLA TYPHIMURIUM, Strain/Indicator: TA100, Metabolic Activation: RAT, LIVER, S-9, AROCLOR 1254, Method: DESICCATOR); “inactive; negative” (Test System: AMES SALMONELLA TYPHIMURIUM, Strain/Indicator: TA100, Metabolic Activation: RAT, LIVER, S-9, AROCLOR 1254, Method: VAPOR CHAMBER); “inactive; negative” (Test System: AMES SALMONELLA TYPHIMURIUM, Strain/Indicator: TA1535, Metabolic Activation: NONE, Method: DESICCATOR); “inactive; negative” (Test System: AMES SALMONELLA TYPHIMURIUM, Strain/Indicator: TA1535, Metabolic Activation: NONE, Method: VAPOR CHAMBER); “inactive; negative” (Test System: AMES SALMONELLA TYPHIMURIUM, Strain/Indicator: TA1535, Metabolic Activation: RAT, LIVER, S-9, AROCLOR 1254, Method: DESICCATOR); “inactive; negative” (Test System: AMES SALMONELLA TYPHIMURIUM, Strain/Indicator: TA1535, Metabolic Activation: RAT, LIVER, S-9, AROCLOR 1254, Method: VAPOR CHAMBER). The mutagenic call by setting is: (Test System: AMES SALMONELLA TYPHIMURIUM, Strain/Indicator: TA1537, Metabolic Activation: NONE, Method: DESICCATOR) “inactive; negative”; (Test System: AMES SALMONELLA TYPHIMURIUM, Strain/Indicator: TA1537, Metabolic Activation: NONE, Method: VAPOR CHAMBER) “inactive; negative”; (Test System: AMES SALMONELLA TYPHIMURIUM, Strain/Indicator: TA1537, Metabolic Activation: RAT, LIVER, S-9, AROCLOR 1254, Method: DESICCATOR) “inactive; negative”; (Test System: AMES SALMONELLA TYPHIMURIUM, Strain/Indicator: TA1537, Metabolic Activation: RAT, LIVER, S-9, AROCLOR 1254, Method: VAPOR CHAMBER) “inactive; negative”; (Test System: AMES SALMONELLA TYPHIMURIUM, Strain/Indicator: TA1538, Metabolic Activation: NONE, Method: DESICCATOR) “inactive; negative”; (Test System: AMES SALMONELLA TYPHIMURIUM, Strain/Indicator: TA1538, Metabolic Activation: NONE, Method: VAPOR CHAMBER) “inactive; negative”. Also, the mutagenic call was “inactive; negative” (Test System: AMES SALMONELLA TYPHIMURIUM, Strain/Indicator: TA1538, Metabolic Activation: RAT, LIVER, S-9, AROCLOR 1254, Method: DESICCATOR); “inactive; negative” (Test System: AMES SALMONELLA TYPHIMURIUM, Strain/Indicator: TA1538, Metabolic Activation: RAT, LIVER, S-9, AROCLOR 1254, Method: VAPOR CHAMBER); “inactive; negative” (Test System: MOUSE LYMPHOMA, Strain/Indicator: L5178Y (TK+/TK-), Metabolic Activation: NONE, Method: SUSPENSION/PLATE); “inactive; negative” (Test System: MOUSE LYMPHOMA, Strain/Indicator: L5178Y (TK+/TK-), Metabolic Activation: RAT, LIVER, S-9, AROCLOR 1254, Method: SUSPENSION/PLATE).

As to `COc1ccc(-c2nc(-c3ccc(C)cc3)c(-c3ccc(C)cc3)[nH]2)cc1OC`, the mutagenic call under setting [1] is “active; positive”; the mutagenic call (Test System: AMES SALMONELLA TYPHIMURIUM, Strain/Indicator: TA98, Metabolic Activation: RAT LIVER S-9, 3-METHYLCHOLANTHRENE, SODIUM PHENOBARBITAL, Method: STANDARD PLATE) was “inactive; negative”; the mutagenic call under setting [2] was “active; positive”; the mutagenic call (Test System: AMES SALMONELLA TYPHIMURIUM, Strain/Indicator: TA100, Metabolic Activation: RAT LIVER S-9, 3-METHYLCHOLANTHRENE, SODIUM PHENOBARBITAL, Method: STANDARD PLATE) is “inactive; negative”.

As to `OCc1cc2ccc3cccnc3c2[nH]1`, the mutagenic call is, setting by setting: under setting [1], “inactive; negative”; (Test System: E. COLI, Strain/Indicator: WP2 TM9, Metabolic Activation: NONE, Method: STANDARD PLATE) “inactive; negative”.

Consider `CN(CCCC(O)c1cccnc1)N=O` (centres undefined), for which the mutagenic call is, setting by setting: (Test System: AMES SALMONELLA TYPHIMURIUM, Strain/Indicator: TA1535, Metabolic Activation: HAMSTER LIVER S-9, AROCLOR 1254 (5% OR 10%), Method: MICROSUPENSION) “active; positive”; (Test System: AMES SALMONELLA TYPHIMURIUM, Strain/Indicator: TA1535, Metabolic Activation: RAT LIVER S-9, AROCLOR 1254 (5% OR 10%), Method: MICROSUSPENSION) “active; positive”.
